Tests used:
EGFR tyrosine kinase = molecular target: T1, EGFR tyrosine kinase (Homo sapiens, UniProt P00533); assay: Test (a) protein tyrosine kinase phosphorylation assay, EGFR; assay type: biochemical; settings: ATP at Km concentration; read-out: IC50 Test (a): Inhibition of EGFR tyrosine kinase protein phosphorylation
T1 construct: Recombinant intracellular fragments of EGFR, erbB2 and erbB4; made in house; host or cells: baculovirus/Sf21 insect cells (cleared lysate used)
Experimental: (§1) This test measures the ability of a test compound to inhibit the phosphorylation of a tyrosine containing polypeptide substrate by EGFR, erbB2 and erbB4 tyrosine kinase enzyme.
(§2) Recombinant intracellular fragments of EGFR, erbB2 and erbB4 (accession numbers X00588, X03363 and L07868 respectively) were cloned and expressed in the baculovirus/Sf21 system. […]
(§3) Constitutive kinase activity of these recombinant proteins was determined by their ability to phosphorylate a synthetic peptide (made up of a random co-polymer of Glutamic Acid, Alanine and Tyrosine in the ratio of 6:3:1). […]
(§4) The immobilised phospho-peptide product of the reaction was detected by immunological methods. […] After further washing, HRP activity in each well of the plate was measured colorimetrically using 22′-Azino-di-[3-ethylbenzthiazoline sulfonate (6)] diammonium salt crystals (ABTS™ from Roche) as a substrate.
(§5) Quantification of colour development and thus enzyme activity was achieved by the measurement of absorbance at 405 nm on a Molecular Devices ThermoMax microplate reader. Kinase inhibition for a given compound was expressed as an IC50 value. […] The range of phosphorylation was calculated from the positive (vehicle plus ATP) and negative (vehicle minus ATP) control values.

erbB2 tyrosine kinase = molecular target: T2, erbB2 tyrosine kinase (Homo sapiens, UniProt P04626); assay: Test (a) protein tyrosine kinase phosphorylation assay, erbB2; assay type: biochemical; settings: ATP at Km concentration; read-out: IC50 Test (a): Inhibition of erbB2 tyrosine kinase protein phosphorylation
T2 construct: Recombinant intracellular fragments of EGFR, erbB2 and erbB4; made in house; host or cells: baculovirus/Sf21 insect cells (cleared lysate used)
Experimental: as §1, §2, §3, §4, §5

[1] = molecular target: T3, erbB2 in a MCF7 derived cell line (Clone 24 cells) (Homo sapiens, UniProt P04626); assay: Test (c) Clone 24 phospho-erbB2 cell assay; assay type: cell-based; settings: MCF7 derived Clone 24 cells, 4 hours with compound; read-out: IC50 Test (c): Inhibition of erbB2 tyrosine kinase protein phosphorylation
T3 construct: to give a cell line that overexpresses full length wild type erbB2 protein; expressed in transfected cells; host or cells: MCF7 (breast carcinoma) derived Clone 24 cells
Experimental: This immunofluorescence end point assay measures the ability of a test compound to inhibit the phosphorylation of erbB2 in a MCF7 (breast carcinoma) derived cell line which was generated by transfecting MCF7 cells with the full length erbB2 gene using standard methods to give a cell line that overexpresses full length wild type erbB2 protein (hereinafter ‘Clone 24’ cells).
Clone 24 cells were cultured in Growth Medium (phenol red free Dulbecco's modified Eagle's medium (DMEM) containing 10% foetal bovine serum, 2 mM glutamine and 1.2 mg/ml G418) in a 7.5% CO2 air incubator at 37° C. […] Cell density was measured using a haemocytometer and viability was calculated using Trypan Blue solution before being further diluted in Growth Medium and seeded at a density of 1×10^4 cells per well (in 100 μl) into clear bottomed 96 well plates (Packard, No. 6005182). […]
Immunostaining was performed at room temperature. […] Plates were analysed within six hours of completing the immunostaining.
The Fluorescence signal is each well was measured using an Acumen Explorer Instrument (Acumen Bioscience Ltd.), a plate reader that can be used to rapidly quantitate features of images generated by laser-scanning. […]

T2 sequence (P04626 676-1255 limits assumed): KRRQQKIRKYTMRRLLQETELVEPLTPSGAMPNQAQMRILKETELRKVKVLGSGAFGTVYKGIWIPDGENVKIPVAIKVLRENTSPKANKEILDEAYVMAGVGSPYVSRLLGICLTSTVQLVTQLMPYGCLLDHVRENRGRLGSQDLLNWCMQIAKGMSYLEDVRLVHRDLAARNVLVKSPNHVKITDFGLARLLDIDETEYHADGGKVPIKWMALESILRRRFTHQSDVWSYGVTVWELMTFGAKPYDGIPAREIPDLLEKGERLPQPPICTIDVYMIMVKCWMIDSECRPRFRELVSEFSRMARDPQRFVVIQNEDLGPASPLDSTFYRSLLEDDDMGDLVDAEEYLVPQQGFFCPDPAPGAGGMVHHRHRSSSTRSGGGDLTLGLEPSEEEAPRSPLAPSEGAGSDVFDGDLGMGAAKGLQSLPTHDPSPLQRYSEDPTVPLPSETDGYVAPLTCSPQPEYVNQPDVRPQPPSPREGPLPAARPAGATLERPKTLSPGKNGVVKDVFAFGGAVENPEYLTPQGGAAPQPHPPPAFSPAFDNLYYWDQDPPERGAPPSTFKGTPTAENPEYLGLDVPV
T1 sequence (P00533 669-1210 limits assumed): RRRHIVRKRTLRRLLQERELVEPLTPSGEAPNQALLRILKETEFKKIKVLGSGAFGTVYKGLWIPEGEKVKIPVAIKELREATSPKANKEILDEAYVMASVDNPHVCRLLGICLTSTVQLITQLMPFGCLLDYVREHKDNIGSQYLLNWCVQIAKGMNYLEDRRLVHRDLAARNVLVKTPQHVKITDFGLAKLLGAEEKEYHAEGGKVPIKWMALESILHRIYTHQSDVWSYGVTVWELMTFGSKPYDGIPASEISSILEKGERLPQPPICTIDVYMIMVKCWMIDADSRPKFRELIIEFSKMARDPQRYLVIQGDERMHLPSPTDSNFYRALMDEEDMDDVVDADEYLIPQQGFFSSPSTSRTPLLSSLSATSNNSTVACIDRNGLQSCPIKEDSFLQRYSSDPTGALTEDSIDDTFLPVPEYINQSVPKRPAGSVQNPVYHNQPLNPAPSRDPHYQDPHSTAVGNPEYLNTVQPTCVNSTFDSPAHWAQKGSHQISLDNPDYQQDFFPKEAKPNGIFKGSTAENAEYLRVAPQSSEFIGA
T3 sequence (P04626 23-1255): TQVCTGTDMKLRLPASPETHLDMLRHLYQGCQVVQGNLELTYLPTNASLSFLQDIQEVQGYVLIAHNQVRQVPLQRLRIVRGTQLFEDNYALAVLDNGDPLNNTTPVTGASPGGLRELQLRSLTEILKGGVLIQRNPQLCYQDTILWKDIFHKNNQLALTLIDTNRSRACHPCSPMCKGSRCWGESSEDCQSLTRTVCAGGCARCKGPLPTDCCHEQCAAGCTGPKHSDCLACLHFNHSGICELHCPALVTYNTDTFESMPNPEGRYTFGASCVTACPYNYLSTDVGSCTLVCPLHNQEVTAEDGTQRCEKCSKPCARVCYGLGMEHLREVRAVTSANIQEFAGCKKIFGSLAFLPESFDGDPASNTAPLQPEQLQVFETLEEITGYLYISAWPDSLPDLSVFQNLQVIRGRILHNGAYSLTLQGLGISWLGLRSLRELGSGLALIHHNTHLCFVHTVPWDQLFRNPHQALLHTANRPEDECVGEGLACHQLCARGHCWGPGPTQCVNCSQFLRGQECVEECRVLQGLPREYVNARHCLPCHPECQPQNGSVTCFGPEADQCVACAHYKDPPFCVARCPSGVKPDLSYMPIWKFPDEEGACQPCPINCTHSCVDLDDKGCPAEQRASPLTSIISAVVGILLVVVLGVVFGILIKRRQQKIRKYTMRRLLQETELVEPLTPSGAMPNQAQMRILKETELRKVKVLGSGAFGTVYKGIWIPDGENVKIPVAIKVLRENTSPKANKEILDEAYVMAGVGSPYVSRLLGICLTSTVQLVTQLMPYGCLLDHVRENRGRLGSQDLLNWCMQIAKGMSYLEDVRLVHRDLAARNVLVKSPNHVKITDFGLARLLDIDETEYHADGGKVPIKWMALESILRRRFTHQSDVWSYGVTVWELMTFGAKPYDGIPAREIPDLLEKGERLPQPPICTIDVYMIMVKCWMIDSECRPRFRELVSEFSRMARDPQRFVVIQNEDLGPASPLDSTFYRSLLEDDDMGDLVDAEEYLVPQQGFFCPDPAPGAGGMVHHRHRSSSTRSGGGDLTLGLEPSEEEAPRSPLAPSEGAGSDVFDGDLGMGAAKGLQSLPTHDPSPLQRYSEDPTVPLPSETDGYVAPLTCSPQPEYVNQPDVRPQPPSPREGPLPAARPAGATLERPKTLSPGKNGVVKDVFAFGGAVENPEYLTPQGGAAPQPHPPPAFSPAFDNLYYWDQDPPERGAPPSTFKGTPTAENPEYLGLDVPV

IC50 (EGFR tyrosine kinase) [nM]	IC50 (erbB2 tyrosine kinase) [nM]	IC50 [1] [nM]	Compound
160	6	590	CN(CCOc1cccc2ncnc(Nc3ccc4c(cnn4Cc4cscn4)c3)c12)C(=O)CO [Example 2, 2-Hydroxy-N-methyl-N-{2-[(4-{[1-(1,3-thiazol-4-ylmethyl)-1H-indazol-5-yl]amino}quinazolin-5-yl)oxy]ethyl}acetamide]
180	8	420	CN(CCOc1cccc2ncnc(Nc3ccc4c(cnn4Cc4ccccn4)c3)c12)C(=O)CO [Example 1, 2-Hydroxy-N-methyl-N-{2-[(4-{[1-(pyridin-2-ylmethyl)-1H-indazol-5-yl]amino}quinazolin-5-yl)oxy]ethyl}acetamide]

From US20090221616A1, “QUINAZOLINE DERIVATIVES AS EGF AND/OR ERBB2 TYROSINE KINASE INHIBITORS” (priority 2005, published 2009)
